Read-outs that look alike come from different tables or passages of the source.
Legend:
[1] = Study 1 Part 1: ascending single-dose PK in healthy men; type: in vivo, human
Excerpt: Study 1 was a 2-part single-center trial in healthy adult male volunteers.
Part 1 of the study enrolled and randomized 55 healthy men (placebo, n=14; 2-, 5-, 15, 25-, 50, and 100-mg doses, n=6 each; 150-mg dose, n=5). Eight healthy men participated in Part 2. […]

[2] = tested on: adult patients with Gaucher disease Type 3; test: Clinical study in GD-3 patients: trail making test (TMT), Trail B minus Trail A time; type: in vivo, human; conditions: for TMT-A (s)-TMT-B (s), Average: screening 126 (n = 6)
Protocol: During the study patients were evaluated for safety and tolerability, CSF and plasma biomarkers (glucosylceramide, GL-1; glucosylsphingosine, lyso-GL1), pharmacokinetics, markers for systemic disease (spleen and liver volume measured by magnetic resonance imaging (MRI), platelet count, hemoglobin levels), indicia of interstitial lung disease (high resolution pulmonary computed tomography (CT)), and horizontal saccadic eye movement. In addition, exploratory biomarkers were quantified in CSF of GD3 patients: ceramide (the precursor of GL-1), chitotriosidase (CHITO), GM3, and GPNMB. Symptoms of ataxia were measured using the SARA scale, neurological symptoms were measured using the trail making test, and functional MRI was used to assess neural connectivity in the brain.
The trail making test (TMT) was used to evaluate cognitive function in the patients. The TMT is one of the most widely used neuropsychological tests and is included in most test batteries. The TMT is a diagnostic tool to assess general intelligence and cognitive dysfunctions (Tombaugh et al. [2004]; Cavaco et al. [2013]). In part A of the TMT (TMT-A), subjects are asked to connect a cluster of numbers in ascending order (Trail A). This task is a combination of visual search and general visual and motor processing speed. Part B (TMT-B) presents a sequence which alternates between numbers and letters (Trail B). Subjects must actively switch between both categories when connecting them in ascending, but alternating order.
TMT-A evaluates mainly perceptual and psychomotor speed. TMT-B assesses more specifically mental flexibility and shifting abilities. TMT-B minus TMT-A score is used to remove the variance attributable to the graphomotor and visual scanning components of TMT-A. This derived score reflects the unique task requirements of TMT-B.

SMILES: CC(C)(NC(=O)O[C@@H]1CN2CCC1CC2)c1csc(-c2ccc(F)cc2)n1 [Compound 2, (S)-quinuclidin-3-yl 2-(2-(4-fluorophenyl)thiazol-4-yl)propan-2-ylcarbamate]
- AUC(0-t) ([1]; male, human, plasma, oral, 100 mg, 100 mg single dose, N = 6, read-out: AUClast, Mean (SD)): 13000 ng·h/mL
- Cmax ([1]; male, human, plasma, oral, 100 mg, 100 mg single dose, N = 6, read-out: Cmax, Geometric mean (CV)): 372 ng/mL
- Cmax ([1]; male, human, plasma, oral, 100 mg, 100 mg single dose, N = 6, read-out: Cmax, Mean (SD)): 374 ng/mL
- Vd/F ([1]; male, human, plasma, oral, 100 mg, 100 mg single dose, N = 6, read-out: Vss/F, Geometric mean (CV)): 212 L
- Vd/F ([1]; male, human, plasma, oral, 100 mg, 100 mg single dose, N = 6, read-out: Vss/F, Mean (SD)): 213 L
- half-life ([1]; male, human, plasma, oral, 100 mg, 100 mg single dose, N = 6, read-out: t1/2, Geometric mean (CV) (converted)): 27.6 h
- half-life ([1]; male, human, plasma, oral, 100 mg, 100 mg single dose, N = 6, read-out: t1/2, Mean (SD) (converted)): 27.8 h
- Tmax ([1]; male, human, plasma, oral, 150 mg single dose, N = 5, read-out: tmax, median): 4 h
- AUC(0-inf) ([1]; male, human, plasma, oral, 150 mg, 150 mg single dose, N = 5, read-out: AUCinf, Geometric mean (CV)): 19900 ng·h/mL
- AUC(0-inf) ([1]; male, human, plasma, oral, 150 mg, 150 mg single dose, N = 5, read-out: AUCinf, Mean (SD)): 20600 ng·h/mL
- AUC(0-t) ([1]; male, human, plasma, oral, 150 mg, 150 mg single dose, N = 5, read-out: AUClast, Geometric mean (CV)): 18000 ng·h/mL
- AUC(0-t) ([1]; male, human, plasma, oral, 150 mg, 150 mg single dose, N = 5, read-out: AUClast, Mean (SD)): 18600 ng·h/mL
- Cmax ([1]; male, human, plasma, oral, 150 mg, 150 mg single dose, N = 5, read-out: Cmax, Geometric mean (CV)): 520 ng/mL
- Cmax ([1]; male, human, plasma, oral, 150 mg, 150 mg single dose, N = 5, read-out: Cmax, Mean (SD)): 529 ng/mL
- Vd/F ([1]; male, human, plasma, oral, 150 mg, 150 mg single dose, N = 5, read-out: Vss/F, Geometric mean (CV)): 223 L
- Vd/F ([1]; male, human, plasma, oral, 150 mg, 150 mg single dose, N = 5, read-out: Vss/F, Mean (SD)): 228 L
- half-life ([1]; male, human, plasma, oral, 150 mg, 150 mg single dose, N = 5, read-out: t1/2, Geometric mean (CV) (converted)): 26.4 h
- half-life ([1]; male, human, plasma, oral, 150 mg, 150 mg single dose, N = 5, read-out: t1/2, Mean (SD) (converted)): 26.9 h
- half-life ([1]; male, human, plasma, po, single oral doses of 2 to 150 mg, read-out: geometric mean t1/2 (converted)): 28.9 h
- median time of Cmax ([1]; single oral doses of 2 to 150 mg): 3 to 5.5 h
- patients with positive correlation between reduction of CSF GL-1 and TMT time ([2]; 52 weeks, 11 patients): 6 of 11
- Trail B minus Trail A time ([2]; Patient 1, Week 26, screening 13, 15 mg/day + imiglucerase): 21 s
- Trail B minus Trail A time ([2]; Patient 1, Week 52, screening 13, 15 mg/day + imiglucerase): 16 s
- TMT-A (s)-TMT-B (s), Change (%) from Baseline to Week 52 ([2]; Patient 1, 15 mg/day + imiglucerase): +23%
- Trail B minus Trail A time ([2]; Patient 2, Week 26, screening 71, 15 mg/day + imiglucerase): 37 s
- Trail B minus Trail A time ([2]; Patient 2, Week 52, screening 71, 15 mg/day + imiglucerase): 57 s
- TMT-A (s)-TMT-B (s), Change (%) from Baseline to Week 52 ([2]; Patient 2, 15 mg/day + imiglucerase): −20%
- Trail B minus Trail A time ([2]; Patient 3, Week 26, screening 72, 15 mg/day + imiglucerase): 56 s
- Trail B minus Trail A time ([2]; Patient 3, Week 52, screening 72, 15 mg/day + imiglucerase): 20 s
- TMT-A (s)-TMT-B (s), Change (%) from Baseline to Week 52 ([2]; Patient 3, 15 mg/day + imiglucerase): −72%
- Trail B minus Trail A time ([2]; Patient 4, Week 52, screening 116, 15 mg/day + imiglucerase): 66 s
- TMT-A (s)-TMT-B (s), Change (%) from Baseline to Week 52 ([2]; Patient 4, 15 mg/day + imiglucerase): −43%
- TMT-A (s)-TMT-B (s), Change (%) from Baseline to Week 52 ([2]; Patient 5 (low Compound 2 exposure)): −3%
- Trail B minus Trail A time ([2]; Patient 5 (low Compound 2 exposure), Week 26, screening 74): 60 s
- Trail B minus Trail A time ([2]; Patient 5 (low Compound 2 exposure), Week 52, screening 74): 72 s
- Trail B minus Trail A time ([2]; Patient 6, Week 26, screening 410, 15 mg/day + imiglucerase): 440 s
- Trail B minus Trail A time ([2]; Patient 6, Week 52, screening 410, 15 mg/day + imiglucerase): 166 s
- TMT-A (s)-TMT-B (s), Change (%) from Baseline to Week 52 ([2]; Patient 6, 15 mg/day + imiglucerase): −60%
- Trail B minus Trail A time ([2]; Patient 7, Week 26, screening 86, 15 mg/day + imiglucerase): 83 s
- Trail B minus Trail A time ([2]; Patient 7, Week 52, screening 86, 15 mg/day + imiglucerase): 110 s
- TMT-A (s)-TMT-B (s), Change (%) from Baseline to Week 52 ([2]; Patient 7, 15 mg/day + imiglucerase): +28%
- Trail B minus Trail A time ([2]; Patient 8, Week 26, screening 100, 15 mg/day + imiglucerase): 54 s
- Trail B minus Trail A time ([2]; Patient 8, Week 52, screening 100, 15 mg/day + imiglucerase): 59 s
- TMT-A (s)-TMT-B (s), Change (%) from Baseline to Week 52 ([2]; Patient 8, 15 mg/day + imiglucerase): −41%
- Trail B minus Trail A time ([2]; Patient 9, Week 52, screening 59, 15 mg/day + imiglucerase): 75 s
- TMT-A (s)-TMT-B (s), Change (%) from Baseline to Week 52 ([2]; Patient 9, 15 mg/day + imiglucerase): +27%
- Trail B minus Trail A time ([2]; Patient 10, Week 26, screening 73, 15 mg/day + imiglucerase): 33 s
- Trail B minus Trail A time ([2]; Patient 10, Week 52, screening 73, 15 mg/day + imiglucerase): 6 s
- TMT-A (s)-TMT-B (s), Change (%) from Baseline to Week 52 ([2]; Patient 10, 15 mg/day + imiglucerase): −92%
- Trail B minus Trail A time ([2]; Patient 11, Week 26, screening 18, 15 mg/day + imiglucerase): 48 s
- Trail B minus Trail A time ([2]; Patient 11, Week 52, screening 18, 15 mg/day + imiglucerase): 32 s
- TMT-A (s)-TMT-B (s), Change (%) from Baseline to Week 52 ([2]; Patient 11, 15 mg/day + imiglucerase): +78%
- TMT-A (s)-TMT-B (s), Average Change (%) from Baseline to Week 52 ([2]; Patients 1-6): −29%
- TMT-A (s)-TMT-B (s), Average ([2]; Week 26, n = 5): 123 (n = 5) s
- patients exhibiting a TMT-A reduction ([2]; Week 52, Excluding Patient 5): four of five
- patients exhibiting a TMT-B reduction ([2]; Week 52, Excluding Patient 5): five of five
- patients exhibiting an improvement in Trail B minus Trial A ([2]; Week 52, Excluding Patient 5): four of five
- mean improvement in Trail B minus Trial A ([2]; Week 52, Excluding Patient 5 (SD 37.6%)): −31.6%
- mean improvement in Trail B minus Trial A ([2]; Week 52, Excluding Patient 5 (SD 99.3 s)): -71.4 s
- patients exhibiting a reduction in the (TMT-B−TMT-A) time ([2]; Week 52, N = 6): 5 of 6
- patients with reduction in time taken to complete Trail A ([2]; Week 52, N = 6): Four of six
- patients with reduction in time taken to complete Trail B ([2]; Week 52, N = 6): six of six
- mean time taken to complete Trail A ([2]; Week 52, N = 6 (SD=55.2 s), baseline 67.8 s): 56.5 s
- mean time taken to complete Trail B ([2]; Week 52, N = 6 (SD=91.8 s), baseline 193.8 s): 122.7 s
- TMT-A (s)-TMT-B (s), Average ([2]; Week 52, n = 6): 66 (n = 6) s
- drop in the (TMT-B−TMT-A) time ([2]; one of the new patients, 52 weeks): 92%

— patent US12083115B2, “Methods for treating neurological symptoms associated with lysosomal storage diseases” (Genzyme Corporation, priority 2020, dated 2024)
